Reference: publication PMC7129073 (Clinical Microbiology and Infection, 2015)
In brackets after ≈: the same amount, converted by molar mass. Read-outs that look alike come from different tables or passages of the source.

Columns and labels:
[1] = test system: viridans group streptococci (VGS); experiment: MIC; type: cell-based
enterococci = experiment: Disk diffusion and E-test, faecal isolates of cancer patients; type: cell-based, Enterococcus; conditions: 38 strains
[2] = test system: glycopeptide intermediate Staphylococcus species (GISS); experiment: VITEK II, screening plate and E test, blood isolates; type: cell-based, coagulase-negative Staphylococci
CA-MRSA = experiment: MIC, MBC; type: cell-based, Staphylococcus aureus; conditions: time kill, two strains
MDR-MRSA = experiment: MIC, MBC; type: cell-based, Staphylococcus aureus; conditions: time kill, two strains
[3] = test system: methicillin susceptible Staphylococcus aureus; experiment: NCCLS agar dilution MIC; type: cell-based
[4] = test system: methicillin resistant Staphylococcus aureus; experiment: NCCLS agar dilution MIC; type: cell-based
[5] = Phase 3 trial, complicated intra-abdominal infections; type: in vivo, human
Acinetobacter = experiment: Disk diffusion; type: cell-based; conditions: 37 isolates selected as resistant to beta-lactams
Pseudomonas spp. = experiment: MIC; type: cell-based
P. aeruginosa = experiment: Disk diffusion, urine isolates of BPH patients
S. pneumoniae (SPN) = experiment: NCCLS broth microdilution, fluoroquinolones 1999–2004; type: cell-based, Streptococcus pneumoniae; conditions: Streptococcus pneumoniae, read-out: MIC90 during the six years, 1999–2004
[6] = test system: Streptococcus agalactiae strains P0162 and P0425; experiment: Microdilution; type: cell-based
Nocardia spp. [7] = experiment: Time-kill at peak-serum concentrations, seven strains; type: cell-based; conditions: of seven strains; 24, 72 h
MSSA = experiment: Agar dilution MIC; type: cell-based, Staphylococcus aureus
MRSA = experiment: Agar dilution MIC; type: cell-based, Staphylococcus aureus
K. pneumoniae = experiment: MIC; type: cell-based, Klebsiella pneumoniae; conditions: for MIC: Klebsiella pneumoniae
S. aureus ATCC 29213 = experiment: Cefoxitin Neo-Sensitabs tablet diffusion, control strain; type: cell-based; conditions: Staphylococcus aureus, ATCC29213, read-out: zone diameter
S. aureus ATCC 25923 = experiment: as above; type: cell-based; conditions: Staphylococcus aureus, ATCC25923, read-out: zone diameter
[8] = test system: inducible Enterobacteriaceae; experiment: SMART 2003, intraabdominal isolates; type: cell-based
Enterobacteriaceae = experiment: SMART 2003 Europe, microdilution; type: cell-based; conditions: 1948 isolates
E. coli [9] = experiment: SMART 2003 Europe, microdilution; type: cell-based, Escherichia coli; conditions: 1106 isolates
Klebsiella = experiment: SMART 2003 Europe, microdilution; type: cell-based, Klebsiella spp.; conditions: 341 isolates
Escherichia coli = experiment: Vitek 2 susceptibility, urine isolates of children; type: cell-based
[10] = test system: Salmonella serotype Enteritidis; experiment: Disk diffusion, food isolates Spain; type: cell-based; conditions: n = 96
[11] = test system: Salmonella serotype Typhimurium; experiment: Disk diffusion, food isolates Spain; type: cell-based; conditions: n = 53
[12] = test system: Salmonella, other 49 serotypes; experiment: Disk diffusion, food isolates Spain; type: cell-based; conditions: n = 115
Nocardia spp. [13] = experiment: E-test on Mueller Hinton agar, 81 clinical isolates; type: cell-based; conditions: for MIC range: read after 48 and 72 h
Pseudomonas aeruginosa = experiment: MIC, strains from cystic fibrosis patients; conditions: by MIC
Streptococcus pneumoniae = experiment: Susceptibility testing; type: cell-based; conditions: 99 isolates tested
Haemophilus influenzae = experiment: Susceptibility testing; type: cell-based; conditions: conjunctival isolates 2000–2004
Staphylococcus aureus = experiment: Susceptibility testing; type: cell-based; conditions: conjunctival isolates 2000–2004
Escherichia coli (ECO) = experiment: Broth microdilution; type: cell-based; conditions: 2001
S. pneumoniae = experiment: MIC of invasive strains, Saint George Hospital 2001–2004; type: cell-based, Streptococcus pneumoniae
H. influenzae = experiment: Disk diffusion, sputum isolates Athens 2001–2004; type: cell-based, Haemophilus influenzae
E. coli [14] = experiment: Disk diffusion, urine isolates of BPH patients; conditions: strains isolated after operative intervention
[15] = test system: group A beta-haemolytic streptococcal (GABHS) pharyngitis; experiment: Phase III trial, GABHS pharyngitis/tonsillitis; type: in vivo, human
E. coli (Ec) = experiment: E-test, recurrent UTI isolates of children; type: cell-based, Escherichia coli

teicoplanin
tolerant isolates ([1]; 83 isolates, tolerance to VA and TP): 77.6% | MIC50 ([1]; 107 strains, 1990–2003): 0.06 µg/mL | MIC90 ([1]; 107 strains, 1990–2003): 0.12 µg/mL | susceptibility of all isolates ([1]; NCCLS): All isolates were susceptible | sensitivity of all isolated strains (enterococci): All the isolated strains were sensitive | MIC of resistant strains ([2]; 26 strains): 32 to 256 µg/mL | MIC of intermediate sensitive strains ([2]; 47 strains): 16 µg/mL | Δ Log10 CFU/ml (CA-MRSA): −1.86 Log10 CFU/ml | Δ Log10 CFU/ml (MDR-MRSA): −3.82 Log10 CFU/ml | MIC50 ([3]; n = 41): 1 µg/mL | MIC90 ([3]; n = 41): 1 µg/mL | MIC range ([3]; n = 41): 0.25 to 2 µg/mL | MIC50 ([4]; n = 53): 1 µg/mL | MIC90 ([4]; n = 53): 2 µg/mL | MIC range ([4]; n = 53): 0.5 to 8 µg/mL

CN(C)c1cc(NC(=O)CNC(C)(C)C)c(O)c2c1C[C@H]1C[C@H]3[C@H](N(C)C)C(O)=C(C(N)=O)C(=O)[C@@]3(O)C(O)=C1C2=O [TGC, tigecycline]
clinical cure rate at TOC, ME group ([5]; TGC 100 mg then 50 mg q12h iv, IMI/CIS 500/500 mg q6h, 5–14 days): 80.6% | nausea ([5]; adverse events): 31.0% | vomiting ([5]; adverse events): 25.7% | clinical cure rate at TOC, m-mITT cohort ([5]; same regimens): 73.5% | Δ Log10 CFU/ml (CA-MRSA): −2.37 Log10 CFU/ml | Δ Log10 CFU/ml (MDR-MRSA): −2.59 Log10 CFU/ml

CCN1CCN(C(=O)N[C@@H](C(=O)N[C@@H]2C(=O)N3[C@@H]2SC(C)(C)[C@@H]3C(=O)O)c2ccccc2)C(=O)C1=O [piperacillin]
resistant isolates (Acinetobacter): 100.0% | susceptible strains (Pseudomonas spp.): 84% | resistance (P. aeruginosa): 73.3%

COc1c(N2C[C@@H]3CCCN[C@@H]3C2)c(F)cc2c(=O)c(C(=O)O)cn(C3CC3)c12 [moxifloxacin]
MIC50 [1]: 0.12 µg/mL (≈ 0.299 µM) | MIC90 [1]: 0.25 µg/mL (≈ 0.623 µM) | MIC90 (S. pneumoniae (SPN)): 0.12 to 0.25 µg/mL (≈ 0.299 to 0.623 µM) | MIC ([6]; strain P0162 (ParC Ser79Phe, GyrA Glu85Ala)): 0.5 µg/mL (≈ 1.25 µM) | MIC ([6]; strain P0425 (ParC Ser79Phe, GyrA Glu85Lys)): 2 µg/mL (≈ 4.98 µM) | strains with bactericidal activity (≥3 log10 cfu/ml decrease) (Nocardia spp. [7]): 2 strains | MIC50 (MSSA; Staphylococcus aureus, MSSA): < 0.025 µg/mL | MIC90 (MSSA; Staphylococcus aureus, MSSA): < 0.0625 µg/mL | MIC range (MSSA; n = 200): 25 to 2000 µg/mL | MIC50 (MRSA; Staphylococcus aureus, MRSA): < 4 µg/mL | MIC90 (MRSA; Staphylococcus aureus, MRSA): < 4 µg/mL | MIC range (MRSA; n = 50): 4 µg/mL (≈ 9.96 µM) | MIC50 ([3]; Staphylococcus aureus): 0.06 µg/mL (≈ 0.149 µM) | MIC90 ([3]; Staphylococcus aureus): 0.12 µg/mL (≈ 0.299 µM) | MIC range ([3]; n = 41): 0.03 to 8 µg/mL | MIC50 ([4]; Staphylococcus aureus): 2 µg/mL (≈ 4.98 µM) | MIC90 ([4]; Staphylococcus aureus): 8 µg/mL (≈ 19.9 µM)

CO[C@@]1(NC(=O)Cc2cccs2)C(=O)N2C(C(=O)O)=C(COC(N)=O)CS[C@@H]21 [cefoxitin]
MIC (K. pneumoniae): > 64 µg/mL | zone of inhibition at 10 µg/disc (S. aureus ATCC 29213): 21 to 23 mm | zone of inhibition at 30 µg/disc (S. aureus ATCC 29213): 27 to 29 mm | zone of inhibition at 60 µg/disc (S. aureus ATCC 29213): 29 to 33 mm | zone of inhibition at 10 µg/disc (S. aureus ATCC 25923): 22 to 23 mm | zone of inhibition at 30 µg/disc (S. aureus ATCC 25923): 27 to 29 mm | zone of inhibition at 60 µg/disc (S. aureus ATCC 25923): 32 to 33 mm | % susceptible ([8]; A/P (N = 200)): 27% | % susceptible ([8]; EU (N = 354)): 29% | % susceptible ([8]; LA (N=113)): 30% | % susceptible ([8]; NA (N = 163)): 23% | per cent susceptible (Enterobacteriaceae): 82% | per cent susceptible (E. coli [9]): 94% | per cent susceptible (Klebsiella): 92%

CC1(C)S[C@@H]2[C@H](NC(=O)[C@H](NC(=O)N3CCNC3=O)c3ccccc3)C(=O)N2[C@H]1C(=O)O [azlocillin]
resistance (P. aeruginosa): 73.3%

NCC[C@H](O)C(=O)N[C@@H]1C[C@H](N)[C@@H](O[C@H]2O[C@H](CN)[C@@H](O)[C@H](O)[C@H]2O)[C@H](O)[C@H]1O[C@H]1O[C@H](CO)[C@@H](O)[C@H](N)[C@H]1O [amikacin]
susceptibility rate (Escherichia coli; paediatric surgical unit (PSU)): 62% | susceptibility rate (Escherichia coli; paediatric units (PU)): 99% | MIC (K. pneumoniae): 4 µg/mL (≈ 6.83 µM) | resistance rate (NCCLS M100-S13) [10]: 1% | resistance rate (NCCLS M100-S13) [11]: 0% | resistance rate (NCCLS M100-S13) [12]: 0% | MIC50 (Nocardia spp. [13]; Nocardia): 0.38 µg/mL (≈ 0.649 µM) | MIC90 (Nocardia spp. [13]; Nocardia): 1 µg/mL (≈ 1.71 µM) | MIC range (Nocardia spp. [13]): 0.016 to 2 µg/mL | resistant isolates (Acinetobacter): 62.1% | strains with bactericidal activity (≥3 log10 cfu/ml decrease) (Nocardia spp. [7]): 7 strains | % susceptible ([8]; A/P (N = 200)): 91% | % susceptible ([8]; EU (N = 354)): 99% | % susceptible ([8]; NA (N = 163)): 99% | per cent susceptible (Enterobacteriaceae): 99% | per cent susceptible (E. coli [9]): 99% | per cent susceptible (Klebsiella): 98% | Susceptible isolates (Pseudomonas aeruginosa): 100%

NC[C@H]1O[C@H](O[C@H]2[C@H](O)[C@@H](O[C@H]3O[C@H](CO)[C@@H](O)[C@H](N)[C@H]3O)[C@H](N)C[C@@H]2N)[C@H](N)C[C@@H]1O [tobramycin]
resistant isolates (Streptococcus pneumoniae): 49.5% | resistant isolates (Haemophilus influenzae): 2.6% | resistant isolates (Staphylococcus aureus): 14.6% | susceptibility category (K. pneumoniae; BSAC): resistant | resistance rate (NCCLS M100-S13) [10]: 1% | resistance rate (NCCLS M100-S13) [11]: 4% | resistance rate (NCCLS M100-S13) [12]: 0% | MIC50 (Nocardia spp. [13]; Nocardia): 4 µg/mL (≈ 8.56 µM) | MIC90 (Nocardia spp. [13]; Nocardia): 12 µg/mL (≈ 25.7 µM) | MIC range (Nocardia spp. [13]): <0.016 to 24 µg/mL | resistance rate ([2]; 73 GISS strains): 91,8% | resistant isolates (Acinetobacter): 10.8% | % susceptible ([8]; A/P (N = 200)): 77% | % susceptible ([8]; EU (N = 354)): 93% | % susceptible ([8]; LA (N=113)): 79% | % susceptible ([8]; NA (N = 163)): 93% | per cent susceptible (Enterobacteriaceae): 93% | per cent susceptible (E. coli [9]): 92% | per cent susceptible (Klebsiella): 91% | susceptible (Escherichia coli (ECO); NAL-resistant isolates): 71.4% | susceptible (Escherichia coli (ECO); NAL-susceptible isolates): 95.0%

amoxicillin/clavulanate
MIC50 (Nocardia spp. [13]): 2 µg/mL | MIC90 (Nocardia spp. [13]): 8 µg/mL | % S (S. pneumoniae): 100% | %R (S. pneumoniae): 0% | resistance rate (H. influenzae; 2001–2002): 0% | resistance rate (H. influenzae; 2003–2004): 4.6% | resistance (E. coli [14]): 93.1%

CC[C@H]1OC(=O)[C@H](C)[C@@H](O[C@H]2C[C@@](C)(OC)[C@@H](O)[C@H](C)O2)[C@H](C)[C@@H](O[C@@H]2O[C@H](C)C[C@H](N(C)C)[C@H]2O)[C@](C)(O)C[C@@H](C)CN(C)[C@H](C)[C@@H](O)[C@]1(C)O [3-day azithromycin, azithromycin]
bacteriologic eradication at TOC (Day 24–28) ([15]; BPP population, single 2.0 g dose vs 500 mg QD for 3 days): 81.4% | clinical cure ([15]; TOC): 96.7% | bacteriologic recurrence at long-term follow up (Day 38–45) ([15]; in vivo): 7.7% | diarrhoea/loose stools ([15]; most frequent adverse event): 11%

Cc1cc(NS(=O)(=O)c2ccc(N)cc2)no1 [Sulfa, sulfamethoxazol]
MIC of sensitive isolates carrying sulI and sulII (E. coli (Ec); 3 isolates): 8 µg/mL | MIC of sensitive strains without the three genes (E. coli (Ec); 6 strains): 12 to 32 µg/mL | resistant isolates (E. coli (Ec); 20 out of 29): 65.5%
